Literature values in EP4568488B1, “VEGETABLE- AND/OR FRUIT-CONTAINING SNACK FOOD PRODUCTS AND MANUFACTURE THEREOF” (PepsiCo International Limited, priority 2022, dated 2024).
Where two headings read alike, the source gives them in different places.

half-life time of β-carotene (convective hot-air drying of carrot slices at 45°C): 3.02 ± 0.04 h
half-life time of β-carotene (convective hot-air drying of carrot slices at 65°C): 1.43 ± 0.03 h
Structure (SMILES): CC1=C(/C=C/C(C)=C/C=C/C(C)=C/C=C/C=C(C)/C=C/C=C(C)/C=C/C2=C(C)CCCC2(C)C)C(C)(C)CCC1 [β-carotene]
